Test results as given in PubChem BioAssay AID651630 (Sanford-Burnham Center for Chemical Genomics, 2012).
Activity calls are given as the source filed them.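 The calls were made as follows: active = lipid-stain IC50 at or below a set limit, with nuclear-stain toxicity IC50 at least five times higher; inactive = the rest.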

Experiments:
[1] = test system: TAG; assay: TAG lipid buildup inhibition with viability readout – cell-based, panel, Nile Red and DAPI fluorescence, H9c2, dose response (AID 651630); settings: H9c2 cells, Nile Red TAG fluorescence, oleic acid;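 also: cells exposed to compound overnight before fixation and staining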
[2] = test system: DAPI; assay: as above; settings: H9c2 cells, DAPI nuclear fluorescence (cytotoxicity counter-readout), oleic acid

Row | Structure (SMILES) | IC50 ([1]; mean of runs) | IC50 ([1]; run 1) [µM] | IC50 ([1]; run 2) [µM] | IC50 cytotoxicity (DAPI nuclear signal decrease) ([2]; mean of runs) | IC50 cytotoxicity (DAPI nuclear signal decrease) ([2]; run 1) [µM] | IC50 cytotoxicity (DAPI nuclear signal decrease) ([2]; run 2) [µM]
1 | CCN1CCN(c2ncc3c(n2)CC(c2cc(OC)c(OC)c(OC)c2)CC3=O)CC1 (stereo not drawn) | > 25 µM (inactive) | > 25 | > 25 | > 25 µM (inactive) | > 25 | > 25
2 | CC(C)C[C@H]1C(=O)N2CCC[C@H]2[C@]2(O)O[C@](NC(=O)[C@@H]3C=C4c5cccc6[nH]c(Br)c(c56)CC4N(C)C3)(C(C)C)C(=O)N12 (stereo partly drawn) | 6.72 µM | 6.96 | 6.47 | > 25 µM (inactive) | > 25 | > 25
3 | Fc1ccc(Oc2nc(-c3ccccn3)nc3ccccc23)cc1 | > 25 µM (inactive) | > 25 | > 25 | > 25 µM (inactive) | > 25 | > 25
4 | CCOc1ccc(C2=Nc3ccccc3C(c3ccc(N4CCOCC4)cc3)=NN2)cc1 | – | > 25 | 14.4 | > 25 µM (inactive) | > 25 | > 25
5 | C[C@@H]1CN([C@H](C)CO)C(=O)c2c(c3ccccc3n2C)-c2ccccc2CO[C@H]1CN(C)Cc1ccc(Oc2ccccc2)cc1 | > 25 µM (inactive) | > 25 | > 25 | – | > 25 | 20
6 | COc1ccc(OC)c(N(CCN2C(=O)c3ccccc3C2=O)C(=O)CCl)c1 | > 25 µM (inactive) | > 25 | > 25 | > 25 µM (inactive) | > 25 | > 25
7 | COc1cc(NC(=O)c2cc([N+](=O)[O-])ccc2NC(=O)CN2CCN(c3ccccn3)CC2)cc(OC)c1 | 12.6 µM | 13.3 | 11.9 | > 25 µM (inactive) | > 25 | > 25
8 | CN(C)CCCN1c2ccccc2Sc2ccc3ccccc3c21 | > 25 µM (inactive) | > 25 | > 25 | > 25 µM (inactive) | > 25 | > 25
9 | Cc1ccc(Cc2nnc(SCC(=O)Nc3ccccc3)n(N)c2=O)cc1 | 9.19 µM | 8.57 | 9.8 | > 25 µM (inactive) | > 25 | > 25
10 | COc1ccc(-c2sc3cc4c(cc3c2C#Cc2ccc(N)cc2)OCO4)cc1 | > 25 µM (inactive) | > 25 | > 25 | > 25 µM (inactive) | > 25 | > 25
11 | Cc1ccc2oc(NC3=NC4(CCCC4)C4=C(CCCC4=O)N3)nc2c1 | 7.66 µM | 8.73 | 6.6 | > 25 µM (inactive) | > 25 | > 25
12 | COc1ccc2sc(-c3ccc(N(C)C)cc3)c(C#CCO)c2c1 | 6.43 µM | 6.72 | 6.13 | > 25 µM (inactive) | > 25 | > 25
13 | CCOc1cc2c(cc1O)CCC1C2CCC2(C)C(O)CCC12 (stereo not drawn) | – | 17.4 | > 25 | > 25 µM (inactive) | > 25 | > 25
14 | CCCCCCN(C(=O)CCCCCN1C(=O)NC(c2ccc([N+](=O)[O-])cc2)C(C(=O)OCc2ccccc2)=C1C)C(C(=O)NCCCC)C1CCCCC1 (stereo not drawn) | 5.66 µM | 3.7 | 7.62 | > 25 µM (inactive) | > 25 | > 25
15 | O=C(CSc1nc2ccc(Nc3nc(N4CCOCC4)nc(N4CCOCC4)n3)cc2s1)Nc1ccccc1F | 12.9 µM | 12.6 | 13.2 | > 25 µM (inactive) | > 25 | > 25
16 | O=C(Nc1cccc(-c2csc(Nc3ccc(Cl)cc3)n2)c1)c1cc([N+](=O)[O-])cc(C(F)(F)F)c1 | 13.9 µM | 13.4 | 14.4 | > 25 µM (inactive) | > 25 | > 25
17 | C#CCN(C[C@H]1[C@H](OC(=O)NCC2CCCCC2)[C@H](OC(=O)NCC2CCCCC2)C[C@@H](C(=O)OC)[C@H]1C(=O)OC)S(=O)(=O)c1ccc(C)cc1 | 4.93 µM | 4.53 | 5.33 | – | > 25 | > 25
18 | C=CCn1c(N)c(C(=O)Nc2ccccc2)c2nc3ccccc3nc21 | 6.11 µM | 6.18 | 6.04 | > 25 µM (inactive) | > 25 | > 25
19 | C[C@H]1CCCCO[C@H](CN(C)CC2CCCCC2)[C@@H](C)CN([C@@H](C)CO)C(=O)c2cc(NS(=O)(=O)c3ccccc3)ccc2O1 | – | 22.5 | > 25 | > 25 µM (inactive) | > 25 | > 25
20 | CCOC(=O)Nc1ccc2c(c1)C(=NNC(=S)NC)c1ccccc1-2 | > 25 µM (inactive) | > 25 | > 25 | – | > 25 | 9.75
21 | CCC(C)(C)NC(=O)C(c1ccc(OC)cc1)N(Cc1cccs1)C(=O)CCC(=O)Nc1cc(C)on1 (stereo not drawn) | 13.3 µM | 13.1 | 13.5 | > 25 µM (inactive) | > 25 | > 25
22 | CCOC(=O)Cc1ccc(Nc2nc3cc(-c4sccc4C)sc3c(=O)n2C)cc1 | 18.5 µM (inactive) | 12.9 | 24.1 | > 25 µM (inactive) | > 25 | > 25
23 | COc1ccc(NC(=O)C2(C)Cc3c(-c4cccc(C(N)=O)c4)ccnc3O2)cn1 (stereo not drawn) | 18.5 µM (inactive) | 18 | 18.9 | > 25 µM (inactive) | > 25 | > 25
24 | CC1CCN(c2cc(N3CCC(C)CC3)c([N+](=O)[O-])cc2/C=C(\C#N)c2nn(-c3ccccc3)c(N)c2C#N)CC1 | > 25 µM (inactive) | > 25 | > 25 | > 25 µM (inactive) | > 25 | > 25
